The NIST ThermoML archive (doi:10.1021/je300972a)
± gives the expanded uncertainty stated by the source.

Legend:
[1] = xn = mol fraction of the nth substance listed; conditions: 101 kPa, Liquid, x1 = 1; for viscosity: Falling or rolling sphere viscometry; for mass density: Vibrating tube method
[2] = refractive index (Na D-line) (dimensionless); xn = mol fraction of the nth substance listed; conditions: 101 kPa, Liquid, Standard Abbe refractometry, x1 = 1
[3] = 101 kPa, Liquid; for viscosity: Falling or rolling sphere viscometry; for mass density: Vibrating tube method
[4] = refractive index (Na D-line) (dimensionless); conditions: 101.33 kPa, Liquid, Standard Abbe refractometry

CCCC[n+]1ccccc1.F[B-](F)(F)F [1-butylpyridinium tetrafluoroborate] + CCCC[n+]1ccc(C)cc1.O=S(=O)([N-]S(=O)(=O)C(F)(F)F)C(F)(F)F
Conditions	mass density, [1] [kg/m3]	refractive index, [2]	viscosity, [1] [mPa·s]
293.15 K	1217.1 ± 1.6	1.447 ± 0.0007	227.1 ± 12
303.15 K	1210.3 ± 1.6	1.4444 ± 0.0007	123.6 ± 4.6
313.15 K	1203.5 ± 1.6	1.4418 ± 0.0007	74.8 ± 2.1
323.15 K	1196.7 ± 1.6	1.4392 ± 0.0007	48.1 ± 1.2
333.15 K	1189.9 ± 1.6	1.4366 ± 0.0007	33 ± 0.8
343.15 K	1183.2 ± 1.6	1.4341 ± 0.0007	23.8 ± 0.6
353.15 K	1176.5 ± 1.6	1.4315 ± 0.0007	17.7 ± 0.5

CCCC[n+]1ccc(C)cc1.O=S(=O)([N-]S(=O)(=O)C(F)(F)F)C(F)(F)F
Conditions	mass density, [3] [kg/m3]	refractive index, [4]	viscosity, [3] [mPa·s]
293.15 K	1416.6 ± 1.7	1.448 ± 0.0007	70.6 ± 1.9
303.15 K	1407.3 ± 1.7	1.4449 ± 0.0007	45.2 ± 1.2
313.15 K	1398.1 ± 1.7	1.4419 ± 0.0007	30.6 ± 0.8
323.15 K	1388.8 ± 1.7	1.4388 ± 0.0007	21.8 ± 0.6
333.15 K	1379.7 ± 1.7	1.4358 ± 0.0007	16.1 ± 0.4
343.15 K	1370.5 ± 1.7	1.4328 ± 0.0007	12.3 ± 0.3
353.15 K	1361.5 ± 1.7	1.4298 ± 0.0007	9.8 ± 0.3

CCCC[n+]1ccccc1.F[B-](F)(F)F [1-butylpyridinium tetrafluoroborate]
Conditions	mass density, [3] [kg/m3]	refractive index, [4]	viscosity, [3] [mPa·s]
293.15 K	1217.1 ± 1.6	1.447 ± 0.0007	227.1 ± 12
303.15 K	1210.3 ± 1.6	1.4444 ± 0.0007	123.6 ± 4.6
313.15 K	1203.5 ± 1.6	1.4418 ± 0.0007	74.8 ± 2.1
323.15 K	1196.7 ± 1.6	1.4392 ± 0.0007	48.1 ± 1.2
333.15 K	1189.9 ± 1.6	1.4366 ± 0.0007	33 ± 0.8
343.15 K	1183.2 ± 1.6	1.4341 ± 0.0007	23.8 ± 0.6
353.15 K	1176.5 ± 1.6	1.4315 ± 0.0007	17.7 ± 0.5
